Assays:
[1] = test system: HeLa cells (epithelial cervical carcinoma cell line with inactivated p53); assay: Dose-response analysis of apoptosis by flow cytometry in HeLa cells; type: cell-based; conditions: Homo sapiens, 24 hours, flow cytometry (annexin-V negative cells in respect to untreated cells)
Method: (§1) The human cell lines Jurkat (T lymphocytes from acute T cell leukemia), Ramos (B lymphocytes from Burkitt's lymphoma), TK6 (human lymphoblast cell line) HeLa (epithelial cervical carcinoma cell line), MDA-MB 231 (epithelial breast adenocarcinoma cell line), T98-G (glioblastoma cell line) and Hep3B (hepatocellular carcinoma cell line) were obtained from the European Collection of Cell Cultures.
(§2) Jurkat, Ramos, TK6 and CLL cells were grown in RPMI-1640 medium, and HeLa cells in DMEM medium, both containing 10% heat-inactivated fetal calf serum, 1% glutamine, and 1% penicillin-streptomycin. MDA-MB 231 cells were grown in DMEM/F-12 medium containing additionally 1% pyruvate. Hep3B cells were maintained in MEM medium supplemented with 10% fetal bovine serum. All were maintained at 37° C. in humidified atmosphere containing 5% carbon dioxide.
(§3) 0.25-0.3×10^6 cells were washed in phosphate-buffered saline (PBS) and resuspended in 100 μl of annexin binding buffer and incubated with 1 μl of annexin V-Fluorescein-5-isothiocyanate (FITC) or annexin V-Allophycocyanin (APC). After 20 min of incubation in the dark at room temperature, 100 μl of annexin binding buffer with 5 μl of propidium iodide (PI) (20 μg/ml) was added just before flow cytometric analysis. Data were analyzed using the appropriate software. Cell viability was measured by analysis of phosphatidylserine exposure and PI uptake and it is expressed as the percentage of annexin-V and PI double-negative cells.
(§4) Dose-response analysis was performed using Jurkat mutated-TP53 cancer cells and inactivated p53 cancer cell line HeLa.
(§5) Cell viability was measured by flow cytometry and it is expressed as the percentage of nonapoptotic cells (annexin-V negative) in respect to untreated cells at 24 hours. Therefore, values under 100% are indicative of apoptosis or loss of cell viability.
HeLa cells (epithelial cervical carcinoma cell line with inactivated p53) were incubated with a range of doses from 2 to 40 μM of each compound for 24 hours.
(§6) The IC50 at 24 hours was calculated for each compound using flow cytometry analysis. The results are expressed in Table 3 as the percentage of nonapoptotic cells (annexin-V negative) in respect to untreated cells at 24 hours.
HeLa cells (epithelial cervical carcinoma cell line with inactivated p53) were incubated with a range of doses from 5 to 40 μM of each compound for 24 hours.

[2] = test system: Ramos cells (B lymphocytes from Burkitt's lymphoma with mutated TP53); assay: Dose-response analysis of apoptosis by flow cytometry in Ramos cells; type: cell-based, human; conditions: 24 hours; for IC50: Homo sapiens, flow cytometry; for induction of apoptosis (dose-response): doses from 2 to 40 μM
Method: as §1, §2, §3
Ramos cells (B lymphocytes from Burkitt's lymphoma with mutated TP53) were incubated with a range of doses from 2 to 40 μM of compounds Ia and Id for 24 hours.
(§7) The IC50 of compounds Ia and Id was calculated at 24 hours by flow cytometry analysis, except for Hep3B where crystal violet assay was used. The results are expressed in Table 4 as the percentage of viable cells in respect to untreated cells at 24 hours.

[3] = test system: MDA-MB-231 cells (epithelial breast adenocarcinoma cell line with mutated TP53); assay: Dose-response analysis of apoptosis by flow cytometry in MDA-MB-231 cells; type: cell-based, human; conditions: 24 hours; for IC50: Homo sapiens, MDA-MB-231, flow cytometry; for induction of apoptosis (dose-response): MDA-MB-231, doses from 2 to 60 μM
Method: as §1, §2, §3
MDA-MB-231 cells (epithelial breast adenocarcinoma cell line with mutated TP53) were incubated with a range of doses from 2 to 60 μM of compounds Ia and Id for 24 hours.
as §7

B-CLL cells = assay: IC50 by flow cytometry in primary B-CLL cells; type: cell-based; conditions: Homo sapiens, 24 hours
Method: as §2
(§8) Peripheral blood lymphocytes from CLL patients were obtained from the Haematology Unit at the IDIBELL-Hospital de Bellvitge, L'Hospitalet de Llobregat, Barcelona, Spain. CLL was diagnosed according to standard clinical and laboratory criteria. […] The purity of CLL samples was evaluated with allophycocyanin (APC)-conjugated anti-CD3 and phycoerythrin (PE)-conjugated anti-CD19 (Becton Dickinson, Frankiln Lakes, N.J., USA). Data were analysed by flow cytometry and the analysis was performed with the appropriate software.
(§9) 0.25-0.3×10^6 cells were washed in phosphate-buffered saline (PBS) and resuspended in 100 μl of annexin binding buffer and incubated with 1 μl of annexin V-Fluorescein-5-isothiocyanate (FITC) or annexin V-Allophycocyanin (APC). […] Data were analyzed using the appropriate software. […]
The IC50 of compounds Ia and Id was calculated at 24 hours by flow cytometry analysis, except for Hep3B where crystal violet assay was used. […]

[4] = test system: Hep3B cells (hepatocellular carcinoma cell line with deleted TP53); assay: Cell viability by crystal violet assay in Hep3B cells; type: cell-based, human; conditions: 24 hours; for IC50: Homo sapiens, crystal violet assay; for loss of cell viability (dose-response): doses from 2 to 40 μM, crystal violet
Method: as §1, §2
This method allows quantifying the amount of cells that survive after a toxic process, and it consists on cell staining with a colorant, crystal violet. This method is only useful when working with adherent cells that detached after undergoing a toxic process.
After the cells were incubated, in 12 or 24-well plates, with the different stimuli or inhibitors, the cell media was removed, and cells were washed twice with PBS. Then, a solution of Crystal violet at 0.2% (w/v) in 2% ethanol was added during 30 minutes. Following this, the staining solution was removed, and the wells were washed several times with PBS or distilled water until the excess staining that was not incorporated into the cells was eliminated. The plate was air-dried, and the stained cells were lysed in 10% SDS. By spectrophotometric analysis, the absorbance was measured at 595 nm.
The results were then calculated as the percentage of viable cells relative to control cells (cells incubated in the absence of treatment) at the indicated times.
Hep3B cells (hepatocellular carcinoma cell line with deleted TP53) were incubated with a range of doses from 2 to 40 μM of compounds Ia and Id for 24 hours.
as §7

[5] = test system: TK6 cells (human lymphoblast cell line with wild-type TP53); assay: Dose-response analysis of apoptosis by flow cytometry in TK6 cells; type: cell-based; conditions: 24 hours; for IC50: Homo sapiens, TK6, flow cytometry; for induction of apoptosis (dose-response): TK6, doses from 2 to 40 μM
Method: as §1, §2, §3
TK6 cells (human lymphoblast cell line with wild-type TP53) were incubated with a range of doses from 2 to 40 μM of compounds Ia and Id for 24 hours.
as §7

[6] = test system: Jurkat cell line (T lymphocytes from acute T cell leukemia, mutated TP53); assay: Screening assay in Jurkat cells by measuring cell viability (flow cytometry), single dose; type: cell-based, human; design: key: “+” means low activity; “++” means good activity; “+++” means very good activity; “−” means no activity; conditions: single dose of 40 μM, 24 hour-incubation
Method: as §1, §2, §3
A screening of the effect of compounds Ia-If was performed in Jurkat cell line (T lymphocytes form acute T cell leukemia) at a single dose of 40 μM for 24 hour-incubation.
Jurkat cells were selected among other leukemic tumor cell lines because they have the protein TP53 mutated.
Every compound mentioned above was dissolved in the minimum amount of DMSO necessary to be dissolved. Cell viability was measured by flow cytometry analysis. […] Thus, all the observed effects on cell viability are due to the compounds' activity.
The results are summarized in Table 2: “+” means low activity; “++” means good activity and “+++” means very good activity; “−” means no activity.

[7] = test system: T98-G cells (glioblastoma cell line with mutated TP53); assay: Dose-response analysis of apoptosis by flow cytometry in T98-G cells; type: cell-based, human; conditions: 24 hours; for IC50: Homo sapiens, T98G, flow cytometry; for induction of apoptosis (dose-response): T98-G, doses from 2 to 60 μM
Method: as §1, §3
T98-G cells (glioblastoma cell line with mutated TP53) were incubated with a range of doses from 2 to 60 μM of compounds Ia and Id for 24 hours.
as §7

[8] = test system: B-CLL cells from patients with wild-type TP53; assay: Dose-response analysis of apoptosis by flow cytometry in B-CLL cells, wild-type TP53; type: cell-based, human; conditions: 24 hours; for induction of apoptosis (dose-response): B-CLL cells wild-type TP53, doses from 1 to 20 μM
Method: as §2
Peripheral blood lymphocytes from CLL patients were obtained from the Haematology Unit at the IDIBELL-Hospital de Bellvitge, L'Hospitalet de Llobregat, Barcelona, Spain. CLL was diagnosed according to standard clinical and laboratory criteria. Written informed consent was obtained from all patients, in accordance with the Hospital de Bellvitge's Ethical Committee. Mononuclear cells from heparinized peripheral blood samples were isolated by centrifugation on a Ficoll-Hypaque (Seromed, Berlin, Germany) gradient. The purity of CLL samples was evaluated with allophycocyanin (APC)-conjugated anti-CD3 and phycoerythrin (PE)-conjugated anti-CD19 (Becton Dickinson, Frankiln Lakes, N.J., USA). Data were analysed by flow cytometry and the analysis was performed with the appropriate software.
as §3
B-CLL cells from patients with wild-type TP53 were incubated with a range of doses from 1 to 20 μM of compounds Ia and Id for 24 hours. […]

[9] = test system: Jurkat cells (T lymphocytes from acute T cell leukemia with mutated TP53); assay: Dose-response analysis of apoptosis by flow cytometry in Jurkat cells; type: cell-based; conditions: Homo sapiens, 24 hours, flow cytometry (annexin-V negative cells in respect to untreated cells)
Method: as §1, §2, §3, §4, §5
Jurkat cells (which are T lymphocytes from acute T cell leukemia with mutated TP53) were incubated with a range of doses from 1 to 40 μM of each compound for 24 hours.
as §6
Jurkat cells (which are T lymphocytes from acute T cell leukemia with mutated TP53) were incubated with a range of doses from 5 to 40 μM of each compound for 24 hours.

[10] = test system: B-CLL cells from patients with mutated TP53; assay: Dose-response analysis of apoptosis by flow cytometry in B-CLL cells, mutated TP53; type: cell-based, human; conditions: B-CLL cells mutated TP53, doses from 1 to 20 μM, 24 hours
Method: as §2
as §8, with “criteria. Written informed consent was obtained from all patients, in accordance with the Hospital de Bellvitge's Ethical Committee.” for “criteria.”
as §9

[11] = test system: T cells (CLL cells from patients with wild-type TP53); assay: Dose-response analysis by flow cytometry in T cells of CLL patients, wild-type TP53; type: cell-based, human; conditions: doses from 5 to 40 μM, 24 hours
Method: Viability was measured by flow cytometry and it is expressed as the percentage of nonapoptotic cells (annexin-V FITC negative). A representative patient is shown.
as §2
as §8, with “Spain.” for “Spain. CLL was diagnosed according to standard clinical and laboratory criteria.”
as §9

| Compound | IC50 [1] [µM] | IC50 [2] [µM] | induction of apoptosis (dose-response) [2] | IC50 [3] [µM] | induction of apoptosis (dose-response) [3] | IC50 (B-CLL cells) [µM] | IC50 [4] [µM] | loss of cell viability (dose-response) [4] | IC50 [5] [µM] | induction of apoptosis (dose-response) [5] | Biological activity [6] | IC50 [7] [µM] | induction of apoptosis (dose-response) [7] | induction of apoptosis (dose-response) [8] | IC50 [9] [µM] | induction of apoptosis (dose-response) [10] | sensitivity of T cells compared with B cells [11] | induction of apoptosis (dose-response) in B cells ([8]; CLL cells wild-type TP53, B cells, doses from 5 to 40 μM) |
| --- | --- | --- | --- | --- | --- | --- | --- | --- | --- | --- | --- | --- | --- | --- | --- | --- | --- | --- |
| Fc1nc(C2=NC(F)(F)C(F)(c3ccccc3)S2)sc1-c1ccccc1 (centres unmarked) [Ia, 4-fluoro-5-phenyl-2-(4,4,5-trifluoro-5-phenyl-4,5-dihydrothiazol-2-yl)thiazole] | 20 | 4.5 | induced apoptosis in a dose-dependent manner | 16 | induced apoptosis in a dose-dependent manner | 4 | 14 | induced a loss on cell viability in a dose-dependent manner | 8 | induced apoptosis in a dose-dependent manner | +++ | 50 | induced apoptosis in a dose-dependent manner | induced apoptosis in a dose-dependent manner | 4 | induced apoptosis in a dose-dependent manner |  |  |
| FC1(F)N=C(c2ncc(-c3ccccc3)s2)SC1(F)c1ccccc1 (centres unmarked) [Ib, 5-phenyl-2-(4,4,5-trifluoro-5-phenyl-4,5-dihydrothiazol-2-yl)thiazole] | 8 |  |  |  |  |  |  |  |  |  | +++ |  |  |  | 3 |  |  |  |
| FC1(F)N=C(c2ccccc2)SC1(F)c1ccccc1 (centres unmarked) [Ic, 4,4,5-trifluoro-2,5-diphenyl-4,5-dihydrothiazole] | 10 |  |  |  |  |  |  |  |  |  | ++ |  |  |  | 8 |  | less sensitive | induced apoptosis in a dose-dependent manner |
| FC1(F)N=C(c2ccc(Cl)cc2)SC1(F)c1ccc(Cl)cc1 (centres unmarked) [Id, 4,4,5-trifluoro-2,5-bis(4-chlorophenyl)-4,5-dihydrothiazole] | 1.75 | 3.5 | induced apoptosis in a dose-dependent manner | 4 | induced apoptosis in a dose-dependent manner | 5 | 5 | induced a loss on cell viability in a dose-dependent manner | 2.5 | induced apoptosis in a dose-dependent manner | +++ | 7.5 | induced apoptosis in a dose-dependent manner | induced apoptosis in a dose-dependent manner | 3.5 | induced apoptosis in a dose-dependent manner |  |  |
| FC1(F)N=C(c2ccc(-c3ccccc3)cc2)SC1(F)c1ccccc1 (centres unmarked) [Ie, 4,4,5-trifluoro-2-(biphenyl-4-yl)-5-phenyl-4,5-dihydrothiazole] | 3.5 |  |  |  |  |  |  |  |  |  | + |  |  |  | 20 |  |  |  |
| CCOC(=O)c1ccc(C2=NC(F)(F)C(F)(c3ccc(C)cc3)S2)cc1 (centres unmarked) [If, ethyl 4-(4,4,5-trifluoro-5-(p-tolyl)-4,5-dihydrothiazol-2-yl)benzoate] | 17 |  |  |  |  |  |  |  |  |  | ++ |  |  |  | 8 |  |  |  |
| Clc1ccc(-c2cnc(-c3ccc(Cl)cc3)s2)cc1 [comparative Ad, 2,5-bis(4-chlorophenyl)thiazole, reference compound] |  |  |  |  |  |  |  |  |  |  | − |  |  |  |  |  |  |  |
